In PubChem BioAssay AID1845208 (Molecular Pharmacology Branch, DTP, NCI, 2023):

System: NCI-H196 SCLC complex tumor spheroid viability
Assay: Anticancer human tumor NCI-H196 cell line growth inhibition;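 also: spheroids exposed to compounds for 7 days before readout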;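 as to viability, T/C: 100% = DMSO vehicle control wells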
Conditions: for IC50: curve of first compound; for viability, T/C: stronger effect = lower value
How it was run: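 Single agents and combinations were tested on spheroids built from tumor cells plus HUVEC and hMSC, at half-log dilutions starting at or near clinical Cmax, else 10 microM; final DMSO 0.25% (v/v).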

`Cc1cc(C)c(CNC(=O)c2cc(-c3ccc(CN4CCOCC4)cc3)cc3c2cnn3C2CCCC2)c(=O)[nH]1` + Cn1nnc2c(C(N)=O)ncn2c1=O was tested, and the IC50 (second compound 1 µM) was > 10 µM, the IC50 (second compound 3.16 µM) was > 10 µM and the IC50 (second compound 10 µM) was > 10 µM. For the same compound, the IC50 (second compound 31.6 µM) was > 10 µM, the IC50 (second compound 100 µM) was > 10 µM and the viability, T/C (second compound 1 µM, first compound 0.0316 µM) was 91%. It also gave a viability, T/C (second compound 1 µM, first compound 0.1 µM) of 102%, a viability, T/C (second compound 1 µM, first compound 0.316 µM) of 92.1% and a viability, T/C (second compound 1 µM, first compound 1 µM) of 92.8%. For the same compound, the viability, T/C (second compound 1 µM, first compound 3.16 µM) was 90.6%, the viability, T/C (second compound 1 µM, first compound 10 µM) was 105% and the viability, T/C (second compound 3.16 µM, first compound 0.0316 µM) was 93.6%. The viability, T/C (second compound 3.16 µM, first compound 0.1 µM) was 94.5%, the viability, T/C (second compound 3.16 µM, first compound 0.316 µM) was 101% and the viability, T/C (second compound 3.16 µM, first compound 1 µM) was 104%. For the same compound, the viability, T/C (second compound 3.16 µM, first compound 3.16 µM) was 100%, the viability, T/C (second compound 3.16 µM, first compound 10 µM) was 101% and the viability, T/C (second compound 10 µM, first compound 0.0316 µM) was 99.3%. It also gave a viability, T/C (second compound 10 µM, first compound 0.1 µM) of 97.8%, a viability, T/C (second compound 10 µM, first compound 0.316 µM) of 98.8% and a viability, T/C (second compound 10 µM, first compound 1 µM) of 93.9%. It also gave a viability, T/C (second compound 10 µM, first compound 3.16 µM) of 94.9%, a viability, T/C (second compound 10 µM, first compound 10 µM) of 96% and a viability, T/C (second compound 31.6 µM, first compound 0.0316 µM) of 98.5%. It also gave a viability, T/C (second compound 31.6 µM, first compound 0.1 µM) of 102%, a viability, T/C (second compound 31.6 µM, first compound 0.316 µM) of 108% and a viability, T/C (second compound 31.6 µM, first compound 1 µM) of 110%. The viability, T/C (second compound 31.6 µM, first compound 3.16 µM) was 104%, the viability, T/C (second compound 31.6 µM, first compound 10 µM) was 94.7% and the viability, T/C (second compound 100 µM, first compound 0.0316 µM) was 94.5%. For the same compound, the viability, T/C (second compound 100 µM, first compound 0.1 µM) was 98.5%, the viability, T/C (second compound 100 µM, first compound 0.316 µM) was 98.9% and the viability, T/C (second compound 100 µM, first compound 1 µM) was 99%. For the same compound, the viability, T/C (second compound 100 µM, first compound 3.16 µM) was 99.8% and the viability, T/C (second compound 100 µM, first compound 10 µM) was 96%.
